Experimental data reported in patent US20060252807A1, “Novel ortho-terphenyl inhibitors of p38 kinase and methods of treating inflammatory disorders” (Kalypsys, Inc., priority 2005, published 2006).

target: T1, active p38 alpha enzyme (Upstate Biotechnology) (Homo sapiens, UniProt Q16539); test: p38α biochemical assay (ATP turnover, luminescent detection, Cambrex PKlight); conditions: p38α kinase; Table 1 Biological Activity
T1 construct: purchased Upstate Biotechnology
Outline: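 Active human p38α was incubated with full-length MapkapK2 protein as substrate and 1.4 uM ATP (final) for 2 hours at 30C. Buffer: 200 mM Tris, 100 mM MgCl2, 1.5 mM EGTA, 4 mM CaCl2, 20 mM MOPS, 1 mM EDTA, 1% glycerol, 0.1% β-mercaptoethanol, 1 mg/ml BSA. Total ATP turnover read by luminescence.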

T1 sequence (Q16539 whole entry): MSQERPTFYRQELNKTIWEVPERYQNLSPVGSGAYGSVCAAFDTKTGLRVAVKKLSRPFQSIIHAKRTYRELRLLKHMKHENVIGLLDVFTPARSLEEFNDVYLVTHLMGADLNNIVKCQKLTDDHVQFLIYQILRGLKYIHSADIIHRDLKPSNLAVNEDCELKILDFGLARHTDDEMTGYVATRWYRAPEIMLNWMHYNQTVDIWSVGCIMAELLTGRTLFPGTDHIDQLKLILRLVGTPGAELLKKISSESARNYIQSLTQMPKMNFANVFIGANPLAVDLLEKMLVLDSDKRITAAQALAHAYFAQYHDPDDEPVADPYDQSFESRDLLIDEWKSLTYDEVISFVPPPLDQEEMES

Compound	IC50 [nM]
Cc1cccc(CNCc2onc(-c3ccc(F)cc3)c2-c2nc(C(=O)NC(C)C)cs2)c1 [Example 1427]	> 1000
CC(C)NC(=O)c1csc(-c2c(-c3ccc(F)cc3)noc2CN[C@@H](C)c2ccccc2)n1 [Example 1428]	> 1000
CC(C)NC(=O)c1csc(-c2c(-c3ccc(F)cc3)noc2CN[C@H](C)c2ccccc2)n1 [Example 1429]	> 1000
CC(C)NC(=O)c1csc(-c2c(-c3ccc(F)cc3)noc2CNCCc2ccccc2)n1 [Example 1430]	> 1000
Cc1ccccc1CNCc1onc(-c2ccc(F)cc2)c1-c1nc(C(=O)NC(C)C)cs1 [Example 1431]	> 1000
Cc1ccc(CNCc2onc(-c3ccc(F)cc3)c2-c2nc(C(=O)NC(C)C)cs2)cc1 [Example 1432]	> 1000
CC(C)NC(=O)c1csc(-c2c(-c3ccc(F)cc3)noc2CNCc2cccc(F)c2)n1 [Example 1434]	> 1000
CC(C)NC(=O)c1csc(-c2c(-c3ccc(F)cc3)noc2CNCc2ccc(F)cc2)n1 [Example 1435]	> 1000
CC(C)NC(=O)c1csc(-c2c(-c3ccc(F)cc3)noc2CNCc2ccccc2F)n1 [Example 1436]	> 1000
CC(C)NC(=O)c1csc(-c2c(-c3ccc(F)cc3)noc2CNCCCn2ccnc2)n1 [Example 1437]	> 1000
Cc1ccc(CCNCc2onc(-c3ccc(F)cc3)c2-c2nc(C(=O)NC(C)C)cs2)cc1 [Example 1444]	> 1000
Cc1ccc(C)c(CNCc2onc(-c3ccc(F)cc3)c2-c2nc(C(=O)NC(C)C)cs2)c1 [Example 1445]	> 1000
Cc1ccc([C@H](C)NCc2onc(-c3ccc(F)cc3)c2-c2nc(C(=O)NC(C)C)cs2)cc1 [Example 1446]	> 1000
Cc1ccc([C@@H](C)NCc2onc(-c3ccc(F)cc3)c2-c2nc(C(=O)NC(C)C)cs2)cc1 [Example 1447]	> 1000
CC(C)NC(=O)c1csc(-c2c(-c3ccc(F)cc3)noc2CNCC(C)c2ccccc2)n1 (centres unmarked) [Example 1448]	> 1000
CC(C)NC(=O)c1csc(-c2c(-c3ccc(F)cc3)noc2CNCC(C)c2ccccc2)n1 (centres unmarked) [Example 1449]	> 1000
CC(C)NC(=O)c1csc(-c2c(-c3ccc(F)cc3)noc2CNCCCc2ccccc2)n1 [Example 1450]	> 1000
Cc1ccc(CNCc2onc(-c3ccc(F)cc3)c2-c2nc(C(=O)NC(C)C)cs2)cc1C [Example 1451]	> 1000
CC(C)NC(=O)c1csc(-c2c(-c3ccc(F)cc3)noc2CNC(C)Cc2ccncc2)n1 (centres unmarked) [Example 1452]	> 1000

Compound	IC50 [nM]
CC(C)NC(=O)c1csc(-c2c(-c3ccc(F)cc3)noc2CNCCc2ccc(O)cc2)n1 [Example 1453]	> 1000
CC(C)NC(=O)c1csc(-c2c(-c3ccc(F)cc3)noc2CNCCOc2ccccc2)n1 [Example 1454]	> 1000
COc1ccccc1CNCc1onc(-c2ccc(F)cc2)c1-c1nc(C(=O)NC(C)C)cs1 [Example 1455]	> 1000
COc1ccc(CNCc2onc(-c3ccc(F)cc3)c2-c2nc(C(=O)NC(C)C)cs2)cc1 [Example 1456]	> 1000
COc1cccc(CNCc2onc(-c3ccc(F)cc3)c2-c2nc(C(=O)NCC(C)C)cs2)c1 [Example 1457]	> 1000
CC(C)NC(=O)c1csc(-c2c(-c3ccc(F)cc3)noc2CNCCc2ccc(F)cc2)n1 [Example 1458]	> 1000
CC(C)NC(=O)c1csc(-c2c(-c3ccc(F)cc3)noc2CNCCc2ccccc2F)n1 [Example 1459]	> 1000
CC(C)NC(=O)c1csc(-c2c(-c3ccc(F)cc3)noc2CNCCc2cccc(F)c2)n1 [Example 1460]	> 1000
CC(C)NC(=O)c1csc(-c2c(-c3ccc(F)cc3)noc2CNCc2cccc(Cl)c2)n1 [Example 1461]	> 1000
CC(C)NC(=O)c1csc(-c2c(-c3ccc(F)cc3)noc2CNCc2ccc(F)cc2F)n1 [Example 1465]	> 1000
CC(C)NC(=O)c1csc(-c2c(-c3ccc(F)cc3)noc2CNCc2ccc(F)c(F)c2)n1 [Example 1466]	> 1000
CC(C)NC(=O)c1csc(-c2c(-c3ccc(F)cc3)noc2CNCc2cc(F)cc(F)c2)n1 [Example 1467]	> 1000
CC(C)NC(=O)c1csc(-c2c(-c3ccc(F)cc3)noc2CNC(C)CCc2ccccc2)n1 (centres unmarked) [Example 1470]	> 1000
CC(C)NC(=O)c1csc(-c2c(-c3ccc(F)cc3)noc2CNCc2ccc(C(C)C)cc2)n1 [Example 1471]	> 1000
CC(C)NC(=O)c1csc(-c2c(-c3ccc(F)cc3)noc2CNCc2ccc3c(c2)OCO3)n1 [Example 1472]	> 1000
COc1cccc(CCNCc2onc(-c3ccc(F)cc3)c2-c2nc(C(=O)NC(C)C)cs2)c1 [Example 1473]	> 1000
CC(C)NC(=O)c1csc(-c2c(-c3ccc(F)cc3)noc2CN[C@H](CO)Cc2ccccc2)n1 [Example 1474]	> 1000
COc1ccc(CCNCc2onc(-c3ccc(F)cc3)c2-c2nc(C(=O)NC(C)C)cs2)cc1 [Example 1475]	> 1000

Results, then the molecule that gave them:

IC50 [nM]	Compound
> 1000	CC1CCC(NCc2onc(-c3ccc(F)cc3)c2-c2nc(C(=O)NC(C)C)cs2)CC1 (centres unmarked) [Example 1420]
> 1000	CC(C)NC(=O)c1csc(-c2c(-c3ccc(F)cc3)noc2CNCC2CCCCC2)n1 [Example 1421]
> 1000	CC(C)NC(=O)c1csc(-c2c(-c3ccc(F)cc3)noc2CNC2CCCCCC2)n1 [Example 1422]
> 1000	CC(C)NC(=O)c1csc(-c2c(-c3ccc(F)cc3)noc2CNC2CCCCC2C)n1 (centres unmarked) [Example 1423]
≤ 1000	CC(C)NC(=O)c1csc(-c2c(-c3ccc(F)cc3)noc2CNCCN2CCCC2)n1 [Example 1424]
> 1000	CC(C)NC(=O)c1csc(-c2c(-c3ccc(F)cc3)noc2CNN2CCN(C)CC2)n1 [Example 1425]
> 1000	CCN(CC)CCNCc1onc(-c2ccc(F)cc2)c1-c1nc(C(=O)NC(C)C)cs1 [Example 1426]
> 1000	Cc1cnc(CNCc2onc(-c3ccc(F)cc3)c2-c2nc(C(=O)NC(C)C)cs2)cn1 [Example 1433]
> 1000	CC(C)NC(=O)c1csc(-c2c(-c3ccc(F)cc3)noc2CNCCC2CCCN2C)n1 (centres unmarked) [Example 1438]
> 1000	CC(C)NC(=O)c1csc(-c2c(-c3ccc(F)cc3)noc2CNCCN2CCCCC2)n1 [Example 1439]
> 1000	CC(C)CCCC(C)NCc1onc(-c2ccc(F)cc2)c1-c1nc(C(=O)NC(C)C)cs1 (centres unmarked) [Example 1440]
> 1000	CC(C)NC(=O)c1csc(-c2c(-c3ccc(F)cc3)noc2CNCCN2CCOCC2)n1 [Example 1441]
> 1000	CCOC(=O)CC(C)NCc1onc(-c2ccc(F)cc2)c1-c1nc(C(=O)NC(C)C)cs1 (centres unmarked) [Example 1442]
> 1000	CC(C)NC(=O)c1csc(-c2c(-c3ccc(F)cc3)noc2CNC2CCc3ccccc32)n1 (centres unmarked) [Example 1443]
> 1000	CC(C)NC(=O)c1csc(-c2c(-c3ccc(F)cc3)noc2CNCc2ccccc2Cl)n1 [Example 1462]
> 1000	CC(C)NC(=O)c1csc(-c2c(-c3ccc(F)cc3)noc2CNCc2ccc(Cl)cc2)n1 [Example 1463]
≤ 1000	CC(C)NC(=O)c1csc(-c2c(-c3ccc(F)cc3)noc2CNCCCN2CCCC2=O)n1 [Example 1464]
> 1000	CC(C)NC(=O)c1csc(-c2c(-c3ccc(F)cc3)noc2CNCCCN2CCOCC2)n1 [Example 1468]
> 1000	CC(C)NC(=O)c1csc(-c2c(-c3ccc(F)cc3)noc2CNCCN(C(C)C)C(C)C)n1 [Example 1469]
